According to ChEMBL document CHEMBL5523739, “NN1213 - A Potent, Long-Acting, and Selective Analog of Human Amylin” (J Med Chem, 2024):
≈ marks a conversion by molar mass, not a printed value. Bridge positions count the residues as written; N and C are the ends. Peptide text beside a SMILES is read from it.

Key:
[1] = Solubility of compound at pH 4 incubated overnight by UPLC analysis; type: physicochemical; conditions: buffer
[2] = Stability against amyloid fibril formation at pH 7.5 assessed as lag time at 1 uM measured after 45 hrs by ThT assay; type: physicochemical; conditions: pH 7.5, 45 h
[3] = Solubility of compound at pH 6.5 incubated overnight by UPLC analysis; type: physicochemical; conditions: buffer
[4] = Solubility of compound at pH 7 incubated overnight by UPLC analysis; type: physicochemical; conditions: buffer
[5] = Solubility of compound at pH 3 incubated overnight by UPLC analysis; type: physicochemical; conditions: buffer
Calcitonin receptor [6] = target: T1, Calcitonin receptor (Homo sapiens, UniProt P30988); test: Agonist activity at human CTR expressed in Baby hamster kidney cells incubated for 3 hrs followed by medium replacement without compound measured after 30 mins by luciferase reporter assay; type: functional, cell-based, Baby hamster kidney cell
T1 sequence (P30988 whole entry): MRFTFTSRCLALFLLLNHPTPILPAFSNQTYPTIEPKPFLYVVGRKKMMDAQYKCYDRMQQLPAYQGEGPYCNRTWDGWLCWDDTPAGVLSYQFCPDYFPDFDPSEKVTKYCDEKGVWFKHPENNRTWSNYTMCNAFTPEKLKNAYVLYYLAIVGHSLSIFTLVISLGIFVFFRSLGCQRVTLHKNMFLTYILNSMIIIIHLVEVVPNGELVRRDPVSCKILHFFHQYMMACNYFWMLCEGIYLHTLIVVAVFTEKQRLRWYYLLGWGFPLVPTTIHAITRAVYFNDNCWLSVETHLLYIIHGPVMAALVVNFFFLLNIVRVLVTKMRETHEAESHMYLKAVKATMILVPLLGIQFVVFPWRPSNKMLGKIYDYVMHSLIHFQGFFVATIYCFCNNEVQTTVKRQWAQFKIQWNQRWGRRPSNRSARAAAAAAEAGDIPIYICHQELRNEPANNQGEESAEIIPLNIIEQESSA

[7] = Solubility of compound at pH 7.5 incubated overnight by UPLC analysis; type: physicochemical; conditions: buffer
[8] = Stability against amyloid fibril formation at pH 7.5 assessed as compound recovery at 1 uM measured after 45 hrs by ThT assay; type: physicochemical; conditions: pH 7.5, 45 h
[9] = Solubility of compound at pH 5 incubated overnight by UPLC analysis; type: physicochemical; conditions: buffer
[10] = Solubility of compound at pH 6 incubated overnight by UPLC analysis; type: physicochemical; conditions: buffer
Homo sapiens = species: Homo sapiens; test: Selectivity ratio of EC50 for human CTR expressed in Baby hamster kidney cells to EC50 for human AMY3R complex of CTR/RAMP3 expressed in Baby hamster kidney cells; type: cell-based
[11] = Solubility of compound at pH 8 incubated overnight by UPLC analysis; type: physicochemical; conditions: buffer
[12] = target: T2, Amylin receptor AMY3; CALCR/RAMP3 (Homo sapiens, UniProt O60896+P30988); test: Agonist activity at human AMY3R complex of CTR/RAMP3 expressed in Baby hamster kidney cells incubated for 3 hrs followed by medium replacement without compound measured after 30 mins by luciferase reporter assay; type: functional, cell-based, Baby hamster kidney cell
T2 sequence (P30988 whole entry): T1 sequence (P30988 whole entry)
T2 sequence (O60896 whole entry): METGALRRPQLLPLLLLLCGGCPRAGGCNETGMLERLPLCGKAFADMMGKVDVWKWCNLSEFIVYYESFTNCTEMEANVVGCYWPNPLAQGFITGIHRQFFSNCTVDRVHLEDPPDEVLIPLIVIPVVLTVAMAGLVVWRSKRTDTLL

Calcitonin receptor [13] = target: T3, Calcitonin receptor (Rattus norvegicus, UniProt P32214); test: Displacement of 125I-Calcitonin from rat CTR expressed in Baby hamster kidney cell membrane incubated for 120 mins by SPA method; type: cell membranes
T3 sequence (P32214 whole entry): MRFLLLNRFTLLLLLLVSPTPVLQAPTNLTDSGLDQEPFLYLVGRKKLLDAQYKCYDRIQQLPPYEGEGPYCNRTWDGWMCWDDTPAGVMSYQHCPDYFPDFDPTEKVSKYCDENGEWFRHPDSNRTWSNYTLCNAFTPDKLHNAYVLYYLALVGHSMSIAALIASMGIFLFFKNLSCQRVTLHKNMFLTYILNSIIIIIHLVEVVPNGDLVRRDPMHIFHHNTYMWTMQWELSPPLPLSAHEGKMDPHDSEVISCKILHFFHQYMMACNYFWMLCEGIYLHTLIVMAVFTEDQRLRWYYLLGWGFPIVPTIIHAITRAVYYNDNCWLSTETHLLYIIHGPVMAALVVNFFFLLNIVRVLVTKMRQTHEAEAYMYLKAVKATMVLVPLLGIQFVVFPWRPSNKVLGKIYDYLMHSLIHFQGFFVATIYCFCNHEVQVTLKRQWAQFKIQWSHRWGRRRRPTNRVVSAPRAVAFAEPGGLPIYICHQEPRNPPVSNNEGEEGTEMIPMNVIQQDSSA

[14] = target: T4, Amylin receptor AMY3; CALCR/RAMP3 (Rattus norvegicus, UniProt P32214+Q9JJ73); test: Displacement of 125I-rat amylin from rat AMY3R complex of CTR/RAMP3 expressed in Baby hamster kidney cell membrane incubated for 120 mins by SPA method; type: cell membranes
T4 sequence (P32214 whole entry): T3 sequence (P32214 whole entry)
T4 sequence (Q9JJ73 whole entry): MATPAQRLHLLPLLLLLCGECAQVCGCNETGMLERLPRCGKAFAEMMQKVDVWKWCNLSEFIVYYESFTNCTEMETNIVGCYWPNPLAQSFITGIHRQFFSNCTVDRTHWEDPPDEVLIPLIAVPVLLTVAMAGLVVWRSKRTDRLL

Calcitonin receptor [15] = target: T1, Calcitonin receptor; test: Displacement of 125I-Calcitonin from human CTR expressed in Baby hamster kidney cell membrane incubated for 120 mins by SPA method; type: cell membranes
[16] = target: T2, Amylin receptor AMY3; CALCR/RAMP3; test: Displacement of 125I-rat amylin from human AMY3R complex of CTR/RAMP3 expressed in Baby hamster kidney cell membrane incubated for 120 mins by SPA method; type: cell membranes
Calcitonin receptor [17] = target: T3, Calcitonin receptor; test: Agonist activity at rat CTR expressed in Baby hamster kidney cells incubated for 3 hrs by cAMP assay; type: functional, cell-based, Baby hamster kidney cell
[18] = target: T4, Amylin receptor AMY3; CALCR/RAMP3; test: Agonist activity at rat AMY3R complex of CTR/RAMP3 expressed in Baby hamster kidney cells incubated for 3 hrs by cAMP assay; type: functional, cell-based, Baby hamster kidney cell
Rattus norvegicus = species: Rattus norvegicus; test: Selectivity ratio of EC50 for rat CTR expressed in Baby hamster kidney cells to EC50 for rat AMY3R complex of CTR/RAMP3 expressed in Baby hamster kidney cells; type: cell-based

| solubility [1] | Time [2] | solubility [3] | solubility [4] | solubility [5] | EC50 (Calcitonin receptor [6]) | solubility [7] | Drug recovery [8] | solubility [9] | solubility [10] | solubility [11] | EC50 [12] | IC50 (Calcitonin receptor [13]) | IC50 [14] | IC50 [16] | EC50 (Calcitonin receptor [17]) | EC50 [18] | SMILES | Ratio EC50 (Homo sapiens) | IC50 (Calcitonin receptor [15]) | Ratio EC50 (Rattus norvegicus) |
| --- | --- | --- | --- | --- | --- | --- | --- | --- | --- | --- | --- | --- | --- | --- | --- | --- | --- | --- | --- | --- |
| ≥ 200 µM | 0 h | 75 µM (≈ 296 µg/mL) | 7 µM (≈ 27.6 µg/mL) | ≥ 200 µM | 1.37 nM | 7 µM (≈ 27.6 µg/mL) | 0% | ≥ 200 µM | ≥ 200 µM | 15 µM (≈ 59.1 µg/mL) | 1.54 nM |  |  |  |  |  | CC(C)C[C@H](NC(=O)[C@H](CCCNC(=N)N)NC(=O)[C@H](CCC(N)=O)NC(=O)[C@@H](NC(=O)[C@H](C)NC(=O)[C@@H]1CSSC[C@H](NC(=O)[C@@H](N)CCCCN)C(=O)N[C@@H](CC(N)=O)C(=O)N[C@@H]([C@@H](C)O)C(=O)N[C@@H](C)C(=O)N[C@@H]([C@@H](C)O)C(=O)N1)[C@@H](C)O)C(=O)N[C@@H](C)C(=O)N[C@@H](CC(=O)O)C(=O)N[C@@H](Cc1ccccc1)C(=O)N[C@@H](CC(C)C)C(=O)N[C@@H](CCCNC(=N)N)C(=O)N[C@@H](Cc1c[nH]cn1)C(=O)N[C@@H](CO)C(=O)N[C@@H](CO)C(=O)N[C@@H](CCC(N)=O)C(=O)N[C@@H](CC(N)=O)C(=O)N[C@@H](Cc1ccccc1)C(=O)NCC(=O)N[C@@H](C)C(=O)N1CCC[C@H]1C(=O)N[C@@H](CC(C)C)C(=O)N[C@@H](CO)C(=O)N[C@@H](CO)C(=O)N[C@H](C(=O)N[C@@H](CC(N)=O)C(=O)N[C@H](C(=O)NCC(=O)N[C@@H](CO)C(=O)N1CCC[C@H]1C(=O)N[C@H](C(=O)N[C@@H](Cc1ccc(O)cc1)C(N)=O)[C@@H](C)O)C(C)C)[C@@H](C)O (H-KCNTATCATQRLADFLRHSSQNFGAPLSSTNVGSPTY-NH2; disulfide 2-7) | 0.9 |  |  |
| ≥ 200 µM | > 45 h | 190 µM (≈ 747 µg/mL) | ≥ 200 µM | ≥ 200 µM | 2.48 nM | ≥ 200 µM | 100% | ≥ 200 µM | ≥ 200 µM | ≥ 200 µM | 0.161 nM | 96.9 nM | 0.217 nM | 0.355 nM | 861 nM | 0.643 nM | CC[C@H](C)[C@H](NC(=O)[C@H](C)NC(=O)CNC(=O)[C@H](Cc1ccccc1)NC(=O)[C@H](CC(N)=O)NC(=O)[C@@H]1CCCN1C(=O)[C@H](CO)NC(=O)[C@H](CO)NC(=O)[C@H](Cc1c[nH]cn1)NC(=O)[C@H](CCCNC(=N)N)NC(=O)[C@H](CC(C)C)NC(=O)[C@H](Cc1ccccc1)NC(=O)[C@H](CC(=O)O)NC(=O)[C@H](C)NC(=O)[C@H](CC(C)C)NC(=O)[C@H](CCCNC(=N)N)NC(=O)[C@H](CCC(N)=O)NC(=O)[C@@H](NC(=O)[C@H](C)NC(=O)[C@@H]1CSSC[C@H](NC(=O)[C@@H](N)CCCCN)C(=O)N[C@@H](CC(N)=O)C(=O)N[C@@H]([C@@H](C)O)C(=O)N[C@@H](C)C(=O)N[C@@H]([C@@H](C)O)C(=O)N1)[C@@H](C)O)C(=O)N1CCC[C@H]1C(=O)N[C@@H](CO)C(=O)N[C@@H](CO)C(=O)N[C@H](C(=O)N[C@@H](CC(N)=O)C(=O)N[C@H](C(=O)NCC(=O)N[C@@H](CO)C(=O)N[C@@H](CC(=O)O)C(=O)N[C@H](C(=O)N[C@@H](Cc1ccc(O)cc1)C(N)=O)[C@@H](C)O)C(C)C)[C@@H](C)O |  | 19.5 nM |  |
| ≥ 200 µM | > 45 h | ≥ 200 µM | ≥ 200 µM | ≥ 200 µM | 0.697 nM | ≥ 200 µM | 100% | ≥ 200 µM | ≥ 200 µM | ≥ 200 µM | 0.18 nM |  |  |  | 14.3 nM | 0.463 nM | CC(C)C[C@H](NC(=O)[C@H](CCCNC(=N)N)NC(=O)[C@H](CCC(N)=O)NC(=O)[C@@H](NC(=O)[C@H](C)NC(=O)[C@@H]1CSSC[C@H](NC(=O)[C@@H](N)CCCCN)C(=O)N[C@@H](CC(N)=O)C(=O)N[C@@H]([C@@H](C)O)C(=O)N[C@@H](C)C(=O)N[C@@H]([C@@H](C)O)C(=O)N1)[C@@H](C)O)C(=O)N[C@@H](C)C(=O)N[C@@H](CC(=O)O)C(=O)N[C@@H](Cc1ccccc1)C(=O)N[C@@H](CC(C)C)C(=O)N[C@@H](CCCNC(=N)N)C(=O)N[C@@H](Cc1c[nH]cn1)C(=O)N[C@@H](CO)C(=O)N[C@@H](CO)C(=O)N[C@@H](CCC(N)=O)C(=O)N[C@@H](CC(N)=O)C(=O)N[C@@H](Cc1ccccc1)C(=O)NCC(=O)N[C@@H](C)C(=O)N1CCC[C@H]1C(=O)N[C@@H](CC(C)C)C(=O)N[C@@H](CO)C(=O)N[C@@H](CO)C(=O)N[C@H](C(=O)N1CCC[C@H]1C(=O)N[C@H](C(=O)NCC(=O)N[C@@H](CO)C(=O)N[C@@H](CC(=O)O)C(=O)N[C@H](C(=O)N[C@@H](Cc1ccc(O)cc1)C(N)=O)[C@@H](C)O)C(C)C)[C@@H](C)O (H-KCNTATCATQRLADFLRHSSQNFGAPLSSTPVGSDTY-NH2; disulfide 2-7) | 3.9 |  | 31 |
